According to patent US20130072468A1, “SUBSTITUTED PIPERAZINES AS CB1 ANTAGONISTS” (priority 2011, published 2013):

Target: T1, cannabinoid CB1 (Homo sapiens, UniProt P21554)
T1 construct: purchased
Test: Competition binding assay for cannabinoid CB1 affinity (3H-CP55,940 displacement, membranes)
Details: competition binding vs 0.5 nM 3H-CP55,940; Ki by Cheng-Prusoff; read-out: Ki values in the assay described above
Method: Method for Evaluating Cannabinoid CB1 and CB affinity
Competition binding assays for cannabinoid CB1 and CB2 affinity were performed by incubating commercially purchased membranes prepared from cells expressing each receptor subtype (8 μg pro) with 0.5 nM ^3H-CP55,940, a non-selective cannabinoid agonist, along with concentrations of drug ranging from 0.0001-3 μM in Buffer A (5 mM MgCl2, 2.5 mM EDTA and […] BSA). Non-specific binding was defined in the presence of 10 μM CP55,940. For saturation studies, concentrations of ^3H-CP55,940 ranging from 0.1-5 nM were incubated with membranes in the presence and absence of 10 μM CP55,940. Assays were terminated after incubation for 1½ hours by rapid filtration onto 0.3 polyethylenamine treated GF/C filterplates using a BRANDEL cell harvester. The plates were dried and MICROSCINT scintillation cocktail was added, after which the bound radioactivity was quantified using a TOPCOUNT scintillation counter.
The dissociation constant (Kd) of ^3H-CP55,940 at the CB1 and CB2 receptor were determined by plotting specific binding at each concentration of radioligand, and analysis by non-linear regression. For competition studies, the concentration of each drug that inhibited 50 percent of ^3H-CP55,940 binding (IC50) was determined by non-linear regression analysis of the radioligand displacement curves. Affinity constants (Ki) were calculated using the equation derived by Cheng and Prusoff (1973), defined as: IC50/1+[conc. ligand/Kd].

T1 sequence (P21554 whole entry): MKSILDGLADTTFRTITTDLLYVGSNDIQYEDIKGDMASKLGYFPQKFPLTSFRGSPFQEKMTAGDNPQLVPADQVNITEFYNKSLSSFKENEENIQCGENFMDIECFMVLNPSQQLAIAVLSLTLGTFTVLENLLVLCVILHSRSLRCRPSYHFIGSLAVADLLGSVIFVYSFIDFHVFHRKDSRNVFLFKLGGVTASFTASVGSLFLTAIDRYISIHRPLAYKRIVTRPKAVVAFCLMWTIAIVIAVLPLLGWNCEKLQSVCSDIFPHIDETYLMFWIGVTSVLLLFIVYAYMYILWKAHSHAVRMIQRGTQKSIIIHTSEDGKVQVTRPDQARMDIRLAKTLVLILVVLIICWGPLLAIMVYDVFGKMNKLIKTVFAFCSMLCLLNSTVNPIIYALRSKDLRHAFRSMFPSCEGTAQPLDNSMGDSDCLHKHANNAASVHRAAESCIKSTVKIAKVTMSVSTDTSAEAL

Row | Compound | Ki
1 | CC(C)(C)OC(=O)N[C@@H](C(=O)N1CCN(c2ccc(Cl)cc2Cl)[C@H](c2ccc(Cl)cc2)C1)c1ccc(Cl)cc1 [Example 1167a] | ≥ 900 nM
2 | O=C1CN(Cc2ccccc2)C[C@@H](c2ccc(Cl)cc2)N1c1ccc(O)cc1Cl [Example 830] | ≥ 900 nM
3 | COc1ccc(N2CCN(Cc3ccccc3)C[C@H]2c2ccc(Cl)cc2)c(Cl)c1 [Example 807] | ≥ 900 nM
4 | C[C@@](O)(CN1CCN(c2ccc(Cl)cc2Cl)[C@H](c2ccc(Cl)cc2)C1)c1ccc(Cl)cc1 [Example 930] | 0.2 to 100 nM
5 | O=C1CN(Cc2ccccc2)C[C@@H](c2ccc(Cl)cc2)N1c1ccc(O)cc1 [Example 831] | ≥ 900 nM
6 | CC(O)(CN1CCN(c2ccc(Cl)cc2Cl)[C@H](c2ccc(Cl)cc2)C1)C1CCN(S(=O)(=O)C2CC2)CC1 (some centres unmarked) [Example 1091] | 0.2 to 100 nM
7 | C[C@@](O)(CN1CCN(c2ccc(C#N)cc2Cl)[C@H](c2ccc(Cl)cc2)C1)c1cc(F)cc(F)c1 [Example 949] | 0.2 to 100 nM
8 | C[C@@](O)(CN1CCN(c2ccc(Cl)cc2Cl)[C@H](c2ccc(Cl)cc2)C1)c1ccc(N)nc1 [Example 1037] | 0.2 to 100 nM
9 | CC(C)(C)CCN1CCC(C(C)(O)CN2CCN(c3ccc(Cl)cc3Cl)[C@H](c3ccc(Cl)cc3)C2)CC1 (some centres unmarked) [Example 1089] | ~873 nM
10 | OCc1ccc(N2CCN(Cc3ccccc3)C[C@H]2c2ccc(Cl)cc2)cc1 [Example 824] | ≥ 900 nM
11 | COC(=O)c1ccc(N2CCN(Cc3ccccc3)C[C@H]2c2ccc(Cl)cc2)cc1 [Example 817] | ≥ 900 nM
12 | COc1ccc(N2CCNC[C@H]2c2ccc(Cl)cc2)c(F)c1 [Example 822] | ≥ 900 nM

Second part, the compound after the results:

Row | Ki | Compound
13 | ≥ 900 nM | N#Cc1ccc(N2CCNC[C@H]2c2ccc(Cl)cc2)nc1 [Example 826b]
14 | ≥ 900 nM | N#Cc1cccnc1N1CCNC[C@H]1c1ccc(Cl)cc1 [Example 826d]
15 | ≥ 900 nM | CC(O)(CN1CCN(c2ccc(Cl)cc2Cl)[C@H](c2ccc(Cl)cc2)C1)C(=O)O (some centres unmarked) [Example 877b]
16 | ≥ 900 nM | COc1cccc([C@@H]2CNCCN2c2ccc(C#N)cc2Cl)c1 [Example 813b]
17 | ≥ 900 nM | COc1ccc(N2CCNC[C@H]2c2ccc(F)cc2)c(C#N)c1 [Example 826e]
